In test [1] the test system is canine keratinocytes. Nature of the test: In vitro ceramide synthesis assay (14C-serine incorporation). In kind it is cell-based. The conditions noted are these: stated as 'has been shown'; FIGS. 2, 3, 7, 8. As for the experimental part: Canine keratinocytes were obtained via explant culture of skin samples taken from healthy adult animals (4 mm biopsy). Samples are washed and dissected in cold PBS containing antibiotics. The epidermis is dissected away from the dermis and cut into 1 mm^2 pieces. The pieces of epidermis are then placed into individual wells of a 24 well collagen-coated plastic plate and briefly allowed to dry down (60 seconds). Green's medium supplemented with 10% fetal bovine serum is then added and the explants cultured for 7-10 days until keratinocytes begin growing out of the edges of the skin. The primary skin cells are now detached from the plastic and explant tissue using trypsin and moved onto a i3T3 (irradiated fibroblast) feeder layer. Cells are expanded on the feeder layer until near confluent at which time they can be moved onto plastic alone. The primary keratinocytes can be used for assays at this point or further expanded in number as required. Keratinocytes are seeded in collagen-coated 24 well plates at a density of 5×10^4 cells per well. These cells are allowed to settle overnight and then the media changed. Cells are then left for 4 days under proliferation promoting culture conditions (in the presence of bovine pituitary extract). Following the 4 days the media is changed to one that promotes differentiation and at this stage the supplement to be tested is added (see individual experiments). Following 6 days under these conditions [^14C]-Serine is added for the ceramide assay or [^14C]-Acetate added for the total lipid assay, in both cases at 0.5 microCi per well. Cells are incubated in the presence of the radioactive markers and supplement for 2 days. At the end of the incubation period cells were harvested using trypsin and washed using PBS. Lipids were subsequently extracted using Bligh-Dyer solution and then added to 4 ml of scintillation fluid. The radioactivity was counted with a liquid scintillation spectrometer. Results for the ceramide synthesis assays are seen in FIGS. 1-6. Results for total lipid synthesis assays are seen in FIGS. 7-8. […]

Test [2] relates to canine keratinocytes. As to conditions: stated as 'known to'; FIG. 5; cited from earlier work.

Where two headings read alike, the source gives them in different places.

With `N[C@@H](Cc1c[nH]cn1)C(=O)O` [Histidine, histidine], the epidermal ceramide synthesis result in the test with canine keratinocytes [1] was “increase”.
Still for that read-out and setting: in the case of `NC(=O)c1cccnc1` [Nicotinamide, nicotinamide] it was “increase”; in that of `O=C(O)[C@@H]1CCCN1` [Proline, proline], “increase”.
Consider `Cc1ncc(CO)c(CO)c1O` [Pyridoxine, pyridoxine], for which, in the test on canine keratinocytes [2], the epidermal ceramide synthesis entry is recorded as “increase”.

Values taken from patent publication US20080076808A1, “SKIN COMPOSITION” (MARS INCORPORATED, priority 2003, published 2008).
